Assay results: article PMC9500072, “Topical application of an irreversible small molecule inhibitor of lysyl oxidases ameliorates skin scarring and fibrosis” (Nature Communications, 2022)
Where “and” joins values, the source holds several entries; their conditions need not be identical. Identical values can stand only once. Entries after “also recorded” stand apart in the source; their conditions may differ.

Assays:
[1] = test system: primary human fibroblasts; test: Cell viability MTS assay; format: cell-based
Description: Cell proliferation was measured using a standard 3-(4,5-dimethylthiazol-2-yl)-5-(3-carboxymethoxypheny1)-2-(4-sulfophenyl)-2H-tetrazolium, inner salt (MTS) assay (Cell Titer 96® Aqueous One Solution Cell Proliferation Assay, Promega, Australia) as per the manufacturer’s protocol. Briefly, 2500 primary scar fibroblasts below passage eight were seeded in each well of 96-well plates. The cells then exposed to 0, 1, 2.5, 5, 10, 25, 50, and 100 µM concentrations of PXS-4787 in cell culture media (DMEM-Glutamax™ supplemented with 10% Fetal Bovine Serum and 1% Penicillin/ Streptomycin, Life technologies, USA) for 24, 48 and 72 h. MTS solution (20 µL) was added in each well and incubated for 3.5 h in a humidified chamber at 37 °C and 5% CO2. The absorbance recorded on a UV–visible spectrophotometer (Enspire Multimode plate reader, PerkinElmer®) at 490 nanometers.

[2] = test system: keratinocytes; test: RNASeq transcriptome analysis, keratinocytes; format: cell-based, human; conditions: 24 hrs of treatment
[3] = test system: Calcium Channel L-Type, Benzothiazepine; test: Eurofins panel 214510; format: binding, rat; conditions: 10 µM
[4] = test system: GABAA, Muscimol, Central; test: Eurofins panel 226500; format: binding, rat; conditions: 10 µM
[5] = test system: Rolipram; test: Eurofins panel 270000; format: binding, rat; conditions: 10 µM
[6] = test system: Thyroid Hormone; test: Eurofins panel 285900; format: binding, rat; conditions: 10 µM
[7] = LogD; format: physicochemical
[8] = test system: lysyl oxidase activity in the skin; test: Rat pharmacokinetic-pharmacodynamic model, skin lysyl oxidase activity; format: in vivo; conditions: for skin LOX activity S/N: individual animals; for inhibition of the specific lysyl oxidase signal: after 24 h
Description: PXS-6302 was formulated as an oil in water cream of different concentrations (0, 0.3, 1, 10%) and applied to a shaved area on the back of a rat (500 mg cream applied to 16 cm^2). After 24 h animals were sacrificed, the concentration of PXS-6302 in the skin was measured and the lysyl oxidase activity determined.
Fig. 5 Pharmacokinetic-pharmacodynamic measurement of target engagement in rat skin in vivo. […] Activity was measured 24 h after last topical application. Noise in these assays was determined by measuring background fluorescent changes in the presence of a high (>300 μM) concentration of BAPN to block all lysyl oxidase activity in the presence of other amine oxidase inhibitors (n = 3 per group). The signal (activity in the absence of BAPN) over noise (signal of the same extract in the presence of BAPN). Statistical analysis was performed with one-way ANOVA with Tukey’s method for multiple comparisons. *p < 0.05, **p < 0.01, ***p < 0.001 and ****p < 0.0001. Source data are provided as a Source Data file. […]
PXS-6302 was formulated as an oil in water cream of different concentrations (0, 0.3, 1, 10%) and applied to a shaved area on the back of an adult rat (500 mg cream applied to 16 cm^2 skin surface area). After 24 h animals were euthanased. For the detection of lysyl oxidase activity in the skin, epidermal and dermal layers of the skin were dissected, pre-cooled with liquid nitrogen and pulverized. Samples were washed by homogenization with ice-cold wash buffer (0.15 M NaCl, 50 mM sodium borate, pH 8.0 with 0.25 mM PMSF and 1 µL/mL bovine aprotinin as protease inhibitors) at 100 µL/mg, centrifuged at 10,000 × g for 10 min at 4 °C and supernatant discarded. After the final washing step, the pellet was resuspended in extraction buffer (6 M urea, 50 mM sodium borate, pH 8.2 with 0.25 mM PMSF and 1 µL/mL aprotinin as protease inhibitors) with ratio of buffer volume to tissue weight at 4:1. After a 3 h incubation at 4 °C, the mixture was diluted 1:2 with assay buffer containing 50 mM sodium borate (pH 8.2), centrifuged at 20,000 × g for 20 min at 4 °C. The collected supernatant was spiked with pargyline hydrochloride and mofegiline hydrochloride at final concentrations of 0.5 mM and 1 µM, respectively, to inhibit amine oxidases. Lysyl oxidase activity was measured as previously described. The concentration of PXS-6302 in the skin was also measured in the same samples using LCMSMS as described for Franz cell diffusion assay.

[9] = molecular target: Cyclooxygenase COX-1 (Homo sapiens, UniProt P23219); test: Eurofins panel 116020; format: biochemical
Chain of Cyclooxygenase COX-1 (P23219 24-599): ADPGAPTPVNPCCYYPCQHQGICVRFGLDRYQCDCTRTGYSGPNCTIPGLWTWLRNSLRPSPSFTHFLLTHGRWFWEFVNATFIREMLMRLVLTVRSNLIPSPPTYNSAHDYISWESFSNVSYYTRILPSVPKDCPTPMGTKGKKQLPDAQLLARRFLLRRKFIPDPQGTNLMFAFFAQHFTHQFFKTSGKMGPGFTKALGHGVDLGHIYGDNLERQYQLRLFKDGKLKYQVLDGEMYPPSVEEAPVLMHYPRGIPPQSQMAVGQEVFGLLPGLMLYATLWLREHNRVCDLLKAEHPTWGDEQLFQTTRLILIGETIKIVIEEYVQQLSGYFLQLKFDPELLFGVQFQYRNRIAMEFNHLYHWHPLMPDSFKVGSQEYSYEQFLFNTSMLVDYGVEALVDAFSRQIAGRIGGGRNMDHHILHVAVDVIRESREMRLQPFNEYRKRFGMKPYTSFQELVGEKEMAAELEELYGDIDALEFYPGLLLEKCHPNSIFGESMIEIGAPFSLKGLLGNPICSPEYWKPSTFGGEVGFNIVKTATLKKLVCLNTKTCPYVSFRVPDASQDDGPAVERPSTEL

[10] = molecular target: Cyclooxygenase COX-2 (Homo sapiens, UniProt P35354); test: Eurofins panel 118010; format: biochemical
Chain of Cyclooxygenase COX-2 (P35354 18-604): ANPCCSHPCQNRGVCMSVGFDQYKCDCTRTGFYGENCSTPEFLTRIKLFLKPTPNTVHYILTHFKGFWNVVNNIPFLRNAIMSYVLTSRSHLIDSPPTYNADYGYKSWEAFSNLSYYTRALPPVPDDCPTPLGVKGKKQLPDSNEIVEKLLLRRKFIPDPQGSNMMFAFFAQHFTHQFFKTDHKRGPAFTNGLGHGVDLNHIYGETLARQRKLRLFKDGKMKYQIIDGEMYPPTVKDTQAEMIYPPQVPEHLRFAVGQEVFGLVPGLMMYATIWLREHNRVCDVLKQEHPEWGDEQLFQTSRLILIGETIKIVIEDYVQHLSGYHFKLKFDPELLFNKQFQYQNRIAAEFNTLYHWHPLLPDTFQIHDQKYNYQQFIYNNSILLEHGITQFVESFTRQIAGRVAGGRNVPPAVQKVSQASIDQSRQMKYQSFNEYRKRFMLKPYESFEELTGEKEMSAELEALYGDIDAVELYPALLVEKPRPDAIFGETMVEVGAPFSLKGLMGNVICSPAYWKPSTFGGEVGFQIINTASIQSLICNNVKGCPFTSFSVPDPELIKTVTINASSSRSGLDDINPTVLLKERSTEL

[11] = molecular target: Cannabinoid CB2 (Homo sapiens, UniProt P34972); test: Eurofins panel 217100; format: binding
Chain of Cannabinoid CB2 (P34972 whole entry): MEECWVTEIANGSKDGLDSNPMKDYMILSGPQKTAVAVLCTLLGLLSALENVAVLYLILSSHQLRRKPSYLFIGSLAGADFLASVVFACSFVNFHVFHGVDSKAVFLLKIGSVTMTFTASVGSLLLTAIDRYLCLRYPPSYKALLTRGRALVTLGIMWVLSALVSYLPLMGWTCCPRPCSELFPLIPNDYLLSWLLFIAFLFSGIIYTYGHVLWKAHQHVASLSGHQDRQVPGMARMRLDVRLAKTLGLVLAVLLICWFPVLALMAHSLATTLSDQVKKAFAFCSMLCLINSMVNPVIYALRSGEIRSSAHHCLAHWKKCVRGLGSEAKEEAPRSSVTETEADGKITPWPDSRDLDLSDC

NC/C=C(\F)CS(=O)(=O)c1ccccc1 [PXS-4787]
fibroblast cell viability ([1]; 0–100 µM, 24, 48 and 72 h): No significant difference in viability; also recorded: no effect | Supp Fig. 1 cell viability MTS reading (quantity not given) ([1]; 1μM, time 0 hrs): 0.5417 and 0.513 and 0.509 | Supp Fig. 1 cell viability MTS reading (quantity not given) ([1]; 1μM, time 24 hrs): 0.5067 and 0.503 and 0.5037 | Supp Fig. 1 cell viability MTS reading (quantity not given) ([1]; 1μM, time 48 hrs): 0.5417 and 0.513 and 0.509 | Supp Fig. 1 cell viability MTS reading (quantity not given) ([1]; 1μM, time 72 hrs): 0.4673 and 0.4607 and 0.4573 | Supp Fig. 1 cell viability MTS reading (quantity not given) ([1]; 5μM, time 0 hrs): 0.505 and 0.4817 and 0.4813 | Supp Fig. 1 cell viability MTS reading (quantity not given) ([1]; 5μM, time 24 hrs): 0.4947 and 0.4857 and 0.4823 | Supp Fig. 1 cell viability MTS reading (quantity not given) ([1]; 5μM, time 48 hrs): 0.505 and 0.4817 and 0.4813 | Supp Fig. 1 cell viability MTS reading (quantity not given) ([1]; 5μM, time 72 hrs): 0.461 and 0.4743 and 0.4797 | Supp Fig. 1 cell viability MTS reading (quantity not given) ([1]; 10μM, time 0 hrs): 0.5527 and 0.5103 and 0.5143 | Supp Fig. 1 cell viability MTS reading (quantity not given) ([1]; 10μM, time 24 hrs): 0.533 and 0.5197 and 0.5183 | Supp Fig. 1 cell viability MTS reading (quantity not given) ([1]; 10μM, time 48 hrs): 0.5527 and 0.5103 and 0.5143 | Supp Fig. 1 cell viability MTS reading (quantity not given) ([1]; 10μM, time 72 hrs): 0.428 and 0.481 and 0.4927 | Supp Fig. 1 cell viability MTS reading (quantity not given) ([1]; 25μM, time 0 hrs): 0.569 and 0.5407 and 0.5403 | Supp Fig. 1 cell viability MTS reading (quantity not given) ([1]; 25μM, time 24 hrs): 0.5363 and 0.517 and 0.513 | Supp Fig. 1 cell viability MTS reading (quantity not given) ([1]; 25μM, time 48 hrs): 0.569 and 0.5407 and 0.5403 | Supp Fig. 1 cell viability MTS reading (quantity not given) ([1]; 25μM, time 72 hrs): 0.45 and 0.5113 and 0.529 | Supp Fig. 1 cell viability MTS reading (quantity not given) ([1]; 50μM, time 0 hrs): 0.5427 and 0.5253 and 0.526 | Supp Fig. 1 cell viability MTS reading (quantity not given) ([1]; 50μM, time 24 hrs): 0.4977 and 0.5027 and 0.5057 | Supp Fig. 1 cell viability MTS reading (quantity not given) ([1]; 50μM, time 48 hrs): 0.5427 and 0.5253 and 0.526 | Supp Fig. 1 cell viability MTS reading (quantity not given) ([1]; 50μM, time 72 hrs): 0.5073 and 0.527 and 0.526 | Supp Fig. 1 cell viability MTS reading (quantity not given) ([1]; 100μM, time 0 hrs): 0.478 and 0.466 and 0.467 | Supp Fig. 1 cell viability MTS reading (quantity not given) ([1]; 100μM, time 24 hrs): 0.468 and 0.457 and 0.456 | Supp Fig. 1 cell viability MTS reading (quantity not given) ([1]; 100μM, time 48 hrs): 0.461 and 0.4477 and 0.449 | Supp Fig. 1 cell viability MTS reading (quantity not given) ([1]; 100μM, time 72 hrs): 0.4837 and 0.4977 and 0.499 | Log2 fold change LOC101927136 [2]: 3.918 | Log2 fold change TMOD1 [2]: 4.799 | % Inh. [3]: 24% | % Inh. [4]: 13% | % Inh. [5]: 17% | % Inh. [6]: 0%

NC/C=C(\F)C(F)(F)S(=O)(=O)c1ccccc1 [PXS-6302]
logD [7]: 1 | lysyl oxidase activity after repeat dosing ([8]; 0.5, 1, 3% cream once daily 5 days): strongly reduced | lysyl oxidase activity, % of pre-drug activity ([8]; 1% cream, 48 h after the last dose): 26% | skin LOX activity S/N ([8]; repeat application 0.5% 400mg): 1.603 and 1.3949 and 1.286 and 1.15 | skin LOX activity S/N ([8]; repeat application 1% 400mg): 1.251 and 1.262 (2×) and 1.26 | skin LOX activity S/N ([8]; repeat application 3% 400mg): 1.108 and 1.192 and 1.079 and 1.121 | skin LOX activity S/N ([8]; single application 0.3% 500mg): 1.245 and 1.84 and 2.264 | skin LOX activity S/N ([8]; single application 1% 500mg): 1.893 and 1.116 and 1.337 | skin LOX activity S/N ([8]; single application 10% 500mg): 1.274 and 1.089 and 1.033 | inhibition of the specific lysyl oxidase signal ([8]; single dose 1% cream): 67% | inhibition of the specific lysyl oxidase signal ([8]; single dose 10% cream): 98% | inhibition at 30 µM [9]: 36% | inhibition at 30 µM [10]: 21% | inhibition at 30 µM [11]: -4%
